≈ marks a conversion by molar mass, not a printed value.
Key:
[1] = test system: Streptococcus pyogenes C203; test: Antibacterial activity, microtitration dilution method (MIC); type: cell-based
Text: (§1) The compounds of the invention display antibacterial activity when tested by the microtitration dilution method as described in Heifetz, et al., Antimicr. Agents. & Chemoth. 6:124 (1974) which is incorporated herein by reference.
(§2) By use of the above referenced method, the following minimum inhibitory concentration values (MICs in µg/mL) were obtained for representative compounds of the invention vs. clinically relevant gram positive pathogens which have become highly resistant to conventional therapy in recent years.

[2] = test system: Enterococcus foecalis MGH2; test: as above; type: cell-based
Text: as §1, §2

[3] = test system: Streptococcus pneumonia 5V-1; test: as above; type: cell-based
Text: as §1, §2

[4] = test system: Staphylococcus aureus H228; test: as above; type: cell-based
Text: as §1, §2

[5] = test system: Staphylococcus aureus UC-76; test: as above; type: cell-based
Text: as §1, §2

HIV-1iiib = test: Anti-HIV-1 activity, acute infection of H9 cells; type: cell-based; settings: Human immunodeficiency virus 1; H9 cell line infected with HIV-1iiib; reverse transcriptase assay at 4 and 7 days post infection; read-out: Concentration for 50% Protection
Procedure: Using the general methods of Pauwels et al., (J. Virol. Methods, 16, 171-185, 1987) and Mann et al. (AIDS Research and Human Retroviruses, 253-255, 1989) anti-viral assays of acute HIV-1 infection were performed in the H9 cell line. Cultures were batch infected in 1 ml of RPM1 1640 media/10% fetal calf serum containing 10^7 cells and 10^5 infectious doses of HIV-1iiib for an effective multiplicity of infection of 0.01. After 2 hours of viral absorption, cells were washed once and plated in 96-well microtiter plates at a density of 10^4 cells per well. Test compounds were added to produce the desired concentration of drug and 0.2% DMSO in a final volume of 200 µl. Uninfected parallel cultures were maintained for XTT cytotoxicity assay at 7 days post infection. Cultures were tested for viral replication by reverse transcriptase assay at 4 and 7 days post infection.

HIV-I Protease = target: T1, HIV-I Protease (Human immunodeficiency virus type 1 group M subtype B, UniProt P04585); test: HIV protease inhibition (hydrolysis of undecapeptide substrate, HPLC readout); type: biochemical; settings: 40 µM substrate, pH 4.7, 37 °C, 5 minutes; read-out: 50% Inhibition Concentration (Averaged)
T1 construct: HIV-I Protease: The enzyme is obtained from Bachem Bioscience Inc; purchased Bachem Bioscience Inc
Procedure: • DTT Buffer: 1.0 mM dithiothreitol (DTT) was prepared fresh daily in 0.1% polyethylene glycol (mw 8000) 80 mM NaOAc, 160 mM NaCl, 1.0 mM EDTA, and brought to pH 4.7 with HCl. • HIV-I Protease: The enzyme is obtained from Bachem Bioscience Inc. The undiluted enzyme is thawed from -80 °C and diluted 50-fold with DTT buffer. The solution is always kept at 0 °C on ice water and used in the experiment within 20 minutes after thawing. • Enzyme Substrate: Substrate III from Bachem Bioscience Inc. is the undecapeptide H-His-Lys-Ala-Arg-Val-Leu-p-Nitrophenylalanine-Glu-Ala-Norleucine-ser-NH2 (> 97 % purity). A 200. µM stock solution in DTT buffer is prepared and stored on ice. Substrate solution is prepared fresh daily. • Test Compound: 10 mM inhibitor (I) in dimethyl sulfoxide (DMSO) is diluted to 200 µM with DTT buffer. From the 200 µM stock solution is made a 10 µM stock solution with 2% DMSO in DTT buffer. The two inhibitor solutions are used to make final [I] = 100, 50, 20, 10, 5, 2, 1, 0.5 and 0 µM with 2% DMSO in DTT buffer in each reaction well (total inhibitor volume of 50 µl).
To each reaction well is added 20 µl of substrate (final concentration of 40 µM), 50 µl of inhibitor (at a concentration such that final dilution will produce the test concentration) and 20 µl of DTT buffer. The reaction plate (96 wells) is incubated at 37 °C for at least 5 minutes.
10 µl of the diluted protease is added to the reaction well while the reaction plate is shaking. Once shaken for 10 seconds, the plate is returned to the heating block at 37 °C. (Final reaction volume = 100 µl.)
The reaction is incubated for 5 minutes at 37 °C. The reaction is stopped by placing the reaction plate on the shaker and adding 20 µl of 10% trifluoroacetic acid (TFA) and shaking for 10 seconds. The amount of proteolysis is then determined by separation of noncleaved substrate and two cleaved products with reverse-phase HPLC, while measuring absorbance at 220 nm to determine the relative peak areas of the three components. The relative peak areas are used to calculate % conversion to product as a function of inhibitor concentration. The data is plotted as % Control (the ratio of % conversion in the presence and absence of inhibitor x 100) versus inhibitor concentration and fit with the equation Y= 100/1+(X/IC50)^A, where IC50 is the inhibitor concentration at 50% inhibition and A is the slope of the inhibition curve.

[6] = read-out: minimum inhibitory concentration (MIC)

Q: With “3-[1-(Cyclohexylthio)-3-methylbutyl]-4-hydroxy-6-phenyl-2H-pyran-2-one [Example 128]” as the compound, how does the “minimum inhibitory concentration (MIC)” value [1] read?
A: 25 µg/mL

Q: What about the “minimum inhibitory concentration (MIC)” value [2] of the same compound?
A: 25 µg/mL

Q: And the “minimum inhibitory concentration (MIC)” value [3]?
A: 25 µg/mL

Q: What about the “minimum inhibitory concentration (MIC)” value [4] of the same compound?
A: 12.5 µg/mL

Q: What about the “minimum inhibitory concentration (MIC)” value [5] of the same compound?
A: 12.5 µg/mL

Q: For `CC(C)(C)CC(SC1CCCCC1)c1c(O)cc(-c2ccccc2)oc1=O` (racemic) [Example 92, 3-[1-(Cyclohexylthio)-3,3-dimethylbutyl]-4-hydroxy-6-phenyl-2H-pyran-2-one], which MIC [1, 6] is on record?
A: 50 µg/mL (≈ 129 µM)

Q: What about the MIC [2, 6] of the same compound?
A: 100 µg/mL (≈ 259 µM)

Q: What about the MIC ([3]; Streptococcus pneumoniae, 5V1, read-out: minimum inhibitory concentration (MIC)) of the same compound?
A: 50 µg/mL (≈ 129 µM)

Q: What about the MIC [4, 6] of the same compound?
A: 25 µg/mL (≈ 64.7 µM)

Q: What about the MIC ([5]; UC76, read-out: minimum inhibitory concentration (MIC)) of the same compound?
A: 25 µg/mL (≈ 64.7 µM)

Q: How did the EC50 (HIV-1iiib) turn out when `O=c1oc(-c2ccccc2)cc(O)c1C(SC1CCCC1)C1CCCC1` (racemic) [Example 151, 3-[Cyclopentyl(cyclopentylthio)methyl]-4-hydroxy-6-phenyl-2H-pyran-2-one] was run?
A: 14 µM

Q: What about the IC50 (HIV-I Protease) of the same compound?
A: 230 nM

Q: Which results are given for `Cc1cc(C)cc(-c2cc(O)c(SCc3ccccc3)c(=O)o2)c1` [Example 56, 6-(3,5-Dimethylphenyl)-4-hydroxy-3-[(phenylmethyl)-thio]-2H-pyran-2-one]?
A: EC50 (HIV-1iiib): 29 µM; IC50 (HIV-I Protease): 130 nM

Q: How did the EC50 (HIV-1iiib) turn out when `O=c1oc(-c2ccc(OCc3cccnc3)cc2)cc(O)c1SCCc1ccccc1` [Example 64, 4-Hydroxy-3-[(2-phenylethyl)thio]-6-[4-(3-pyridinylmethoxy)phenyl]-2H-pyran-2-one] was run?
A: 3 µM

Q: What about the IC50 (HIV-I Protease) of the same compound?
A: 1500 nM
